According to patent US11000033B2, “Ketone or oxime compound, and herbicide” (NISSAN CHEMICAL CORPORATION, priority 2014, dated 2021):

Legend:
Type in all cases: in vivo
[1] = tested on: soybean; experiment: Test Example 5: effect on crop by foliage application, plastic box (symbol d); conditions: 320 g/ha, 3 weeks after application
Outline: (§1)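 Crop seed is sown alongside grass and broadleaf weed species in spots in sterilized diluvial soil, then covered to a depth of about 1.5 cm. Plants grow in a greenhouse kept at 25° C. to 30° C.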

[2] = tested on: rice; experiment: Test Example 4: effect on crop by soil treatment (symbol b); conditions: application herbicide amount 320 g/ha
Outline: (§2)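 Sterilized diluvial soil, spot sowing, ~1.5 cm soil cover; greenhouse 25–30° C.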

[3] = tested on: rapeseed; experiment: Test Example 5: effect on crop by foliage application, plastic box (symbol g); conditions: 320 g/ha, 3 weeks after application
Outline: as §1

[4] = tested on: wheat; experiment: Test Example 4: effect on crop by soil treatment (symbol e); conditions: application herbicide amount 320 g/ha
Outline: as §2

[5] = tested on: soybean; experiment: Test Example 4: effect on crop by soil treatment (symbol d); conditions: application herbicide amount 320 g/ha
Outline: as §2

[6] = tested on: Echinochloa crus-galli var. crus-galli; experiment: Test Example 4: herbicidal effect by soil treatment (symbol H); conditions: application herbicide amount 320 g/ha
Outline: (§3)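 Seeds were sown in sterilized diluvial soil, covered with about 1.5 cm of soil, and the soil surface was sprayed with a water-diluted emulsion of the compound at a predetermined rate. Plants grew in a greenhouse at 25° C. to 30° C.; effects were scored visually 3 weeks after application.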

[7] = tested on: Echinochloa crus-galli var. crus-galli; experiment: Test Example 5: herbicidal effect by foliage application, plastic box (symbol H); conditions: 320 g/ha, 3 weeks after application
Outline: (§4)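 Emulsion formulation, diluted with water to the intended rate, was applied uniformly to leaves by small sprayer. Recipients were 14-day greenhouse-grown seedlings (25° C. to 30° C.). Assessment followed at 3 weeks.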

[8] = tested on: Avena fatua; experiment: Test Example 4: herbicidal effect by soil treatment (symbol I); conditions: application herbicide amount 320 g/ha
Outline: as §3

[9] = tested on: Lolium multiflorum Lam.; experiment: Test Example 4: herbicidal effect by soil treatment (symbol K); conditions: application herbicide amount 320 g/ha
Outline: as §3

[10] = tested on: Monochoria vaginalis; experiment: Test Example 2: herbicidal activity, application during weed generation in submerged conditions (symbol C); conditions: Table 23; application herbicide amount 320 g/ha; grade 0-5 by criteria of Test Example 1
Outline: (§5)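 Weeds emerging under flooded conditions were treated with compound formulated as an emulsion and diluted with water to the intended herbicide amount, poured onto the surface of 4 cm standing water. Seeds had been co-sown in alluvial soil; plants grew at 25° C. to 30° C. and were assessed after 3 weeks.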

[11] = tested on: beet; experiment: Test Example 4: effect on crop by soil treatment (symbol f); conditions: application herbicide amount 320 g/ha
Outline: as §2

[12] = tested on: Abutilon theophrasti; experiment: Test Example 4: herbicidal effect by soil treatment (symbol M); conditions: application herbicide amount 320 g/ha
Outline: as §3

[13] = tested on: Lolium multiflorum Lam.; experiment: Test Example 5: herbicidal effect by foliage application, plastic box (symbol K); conditions: 320 g/ha, 3 weeks after application
Outline: as §4

[14] = tested on: Digitaria ciliaris; experiment: Test Example 5: herbicidal effect by foliage application, plastic box (symbol F); conditions: 320 g/ha, 3 weeks after application
Outline: as §4

[15] = tested on: Veronica persica; experiment: Test Example 5: herbicidal effect by foliage application, plastic box (symbol R); conditions: 320 g/ha, 3 weeks after application
Outline: as §4

[16] = tested on: transplanted rice plant; experiment: Test Example 1: effect on crop, application before weed generation in submerged conditions (symbol a); conditions: application herbicide amount 320 g/ha
Outline: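 Rice at 2.5 leaf stage transplanted into submerged soil (4 cm depth) sown with three weed species; herbicide applied before weed emergence.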

[17] = tested on: corn; experiment: Test Example 5: effect on crop by foliage application, plastic box (symbol c); conditions: 320 g/ha, 3 weeks after application
Outline: as §1

[18] = tested on: Scirpus juncoides; experiment: Test Example 2: herbicidal activity, application during weed generation in submerged conditions (symbol B); conditions: Table 23; application herbicide amount 320 g/ha; grade 0-5 by criteria of Test Example 1
Outline: as §5

[19] = tested on: Amaranthus retroflexus; experiment: Test Example 5: herbicidal effect by foliage application, plastic box (symbol N); conditions: 320 g/ha, 3 weeks after application
Outline: as §4

Structure (SMILES)	d: soybean, effect on crop grade [1]	b (directly sowed rice plant) effect on crop grade [2]	g: rapeseed, effect on crop grade [3]	e (wheat) effect on crop grade [4]	d (soybean) effect on crop grade [5]	H (Echinochloa crus-galli var. crus-galli) herbicidal effect grade [6]	H: Echinochloa crus-galli var. crus-galli, herbicidal effect grade [7]	I (Avena fatua) herbicidal effect grade [8]	K (Lolium multiflorum Lam.) herbicidal effect grade [9]	Herbicidal effect grade, C: Monochoria vaginalis [10]	f (beet) effect on crop grade [11]	M (Abutilon theophrasti) herbicidal effect grade [12]	K: Lolium multiflorum Lam., herbicidal effect grade [13]	F: Digitaria ciliaris, herbicidal effect grade [14]	R: Veronica persica, herbicidal effect grade [15]	Effect grade on crop, a: transplanted rice plant [16]	c: corn, effect on crop grade [17]	Herbicidal effect grade, B: Scirpus juncoides [18]	N: Amaranthus retroflexus, herbicidal effect grade [19]
CCON=C(C)CC1CC(O)=C(c2c(C)cc(C)cc2C)C1=O (stereo not shown) [1-003]	3 (Herbicidal ratio of 40% or higher and lower than 70%)	5 (Herbicidal ratio of 90% or more (almost completely withered))	4 (Herbicidal ratio of 70% or higher and lower than 90%)	5 (Herbicidal ratio of 90% or more (almost completely withered))	3 (Herbicidal ratio of 40% or higher and lower than 70%)	5 (Herbicidal ratio of 90% or more (almost completely withered))	5 (Herbicidal ratio of 90% or more (almost completely withered))	4 (Herbicidal ratio of 70% or higher and lower than 90%)	5 (Herbicidal ratio of 90% or more (almost completely withered))	3 (Herbicidal ratio of 40% or higher and lower than 70%)	2 (Herbicidal ratio of 20% or higher and lower than 40%)	4 (Herbicidal ratio of 70% or higher and lower than 90%)	5 (Herbicidal ratio of 90% or more (almost completely withered))	5 (Herbicidal ratio of 90% or more (almost completely withered))	3 (Herbicidal ratio of 40% or higher and lower than 70%)	5 (Herbicidal ratio of 90% or more (almost completely withered))	5 (Herbicidal ratio of 90% or more (almost completely withered))	3 (Herbicidal ratio of 40% or higher and lower than 70%)	3 (Herbicidal ratio of 40% or higher and lower than 70%)
CC(CC1CC(O)=C(c2c(C)cc(C)cc2C)C1=O)=NOCC(=O)N1CCOCC1 (stereo not shown) [1-025]	3 (Herbicidal ratio of 40% or higher and lower than 70%)	5 (Herbicidal ratio of 90% or more (almost completely withered))	4 (Herbicidal ratio of 70% or higher and lower than 90%)	0 (Herbicidal ratio of 5% or lower (almost no effect))	0 (Herbicidal ratio of 5% or lower (almost no effect))	5 (Herbicidal ratio of 90% or more (almost completely withered))	4 (Herbicidal ratio of 70% or higher and lower than 90%)	3 (Herbicidal ratio of 40% or higher and lower than 70%)	5 (Herbicidal ratio of 90% or more (almost completely withered))	0 (Herbicidal ratio of 5% or lower (almost no effect))	0 (Herbicidal ratio of 5% or lower (almost no effect))	0 (Herbicidal ratio of 5% or lower (almost no effect))	5 (Herbicidal ratio of 90% or more (almost completely withered))	5 (Herbicidal ratio of 90% or more (almost completely withered))	3 (Herbicidal ratio of 40% or higher and lower than 70%)	3 (Herbicidal ratio of 40% or higher and lower than 70%)	3 (Herbicidal ratio of 40% or higher and lower than 70%)	0 (Herbicidal ratio of 5% or lower (almost no effect))	0 (Herbicidal ratio of 5% or lower (almost no effect))
CSCCON=C(C)CC1CC(O)=C(c2c(C)cc(C)cc2C)C1=O (stereo not shown) [1-029]	1 (Herbicidal ratio of 5% or higher and lower than 20%)	5 (Herbicidal ratio of 90% or more (almost completely withered))	4 (Herbicidal ratio of 70% or higher and lower than 90%)	0 (Herbicidal ratio of 5% or lower (almost no effect))	0 (Herbicidal ratio of 5% or lower (almost no effect))	5 (Herbicidal ratio of 90% or more (almost completely withered))	5 (Herbicidal ratio of 90% or more (almost completely withered))	1 (Herbicidal ratio of 5% or higher and lower than 20%)	5 (Herbicidal ratio of 90% or more (almost completely withered))	0 (Herbicidal ratio of 5% or lower (almost no effect))	0 (Herbicidal ratio of 5% or lower (almost no effect))	0 (Herbicidal ratio of 5% or lower (almost no effect))	5 (Herbicidal ratio of 90% or more (almost completely withered))	5 (Herbicidal ratio of 90% or more (almost completely withered))	1 (Herbicidal ratio of 5% or higher and lower than 20%)	5 (Herbicidal ratio of 90% or more (almost completely withered))	3 (Herbicidal ratio of 40% or higher and lower than 70%)	0 (Herbicidal ratio of 5% or lower (almost no effect))	0 (Herbicidal ratio of 5% or lower (almost no effect))
CCCCCCCCC(=O)OC1=C(c2c(C)cc(C)cc2C)C(=O)C(CC(C)=NOC)C1 (stereo not shown) [1-033]	4 (Herbicidal ratio of 70% or higher and lower than 90%)	5 (Herbicidal ratio of 90% or more (almost completely withered))	4 (Herbicidal ratio of 70% or higher and lower than 90%)	5 (Herbicidal ratio of 90% or more (almost completely withered))	0 (Herbicidal ratio of 5% or lower (almost no effect))	5 (Herbicidal ratio of 90% or more (almost completely withered))	5 (Herbicidal ratio of 90% or more (almost completely withered))	4 (Herbicidal ratio of 70% or higher and lower than 90%)	5 (Herbicidal ratio of 90% or more (almost completely withered))	2 (Herbicidal ratio of 20% or higher and lower than 40%)	1 (Herbicidal ratio of 5% or higher and lower than 20%)	5 (Herbicidal ratio of 90% or more (almost completely withered))	5 (Herbicidal ratio of 90% or more (almost completely withered))	5 (Herbicidal ratio of 90% or more (almost completely withered))	2 (Herbicidal ratio of 20% or higher and lower than 40%)	5 (Herbicidal ratio of 90% or more (almost completely withered))	4 (Herbicidal ratio of 70% or higher and lower than 90%)	4 (Herbicidal ratio of 70% or higher and lower than 90%)	4 (Herbicidal ratio of 70% or higher and lower than 90%)
